# Results taken from US20030225152A1, “3-(Arylamino)methylene-1, 3-dihydro-2h-indol-2-ones as kinase inhibitors” (priority 2001, published 2003).
# How the values were obtained:
# [1] = target: T1, cytoplasmic domain of the human VEGF receptor (VEGFR-2) (Homo sapiens, UniProt P35968); experiment: KDR Assay; format: biochemical; details: His-VEGFR-2; 3.6 μM ATP
# T1 construct: The cytoplasmic domain of the human VEGF receptor (VEGFR-2) was expressed as a Histidine-tagged fusion protein; Histidine tag
# T1 sequence (P35968 786-1356): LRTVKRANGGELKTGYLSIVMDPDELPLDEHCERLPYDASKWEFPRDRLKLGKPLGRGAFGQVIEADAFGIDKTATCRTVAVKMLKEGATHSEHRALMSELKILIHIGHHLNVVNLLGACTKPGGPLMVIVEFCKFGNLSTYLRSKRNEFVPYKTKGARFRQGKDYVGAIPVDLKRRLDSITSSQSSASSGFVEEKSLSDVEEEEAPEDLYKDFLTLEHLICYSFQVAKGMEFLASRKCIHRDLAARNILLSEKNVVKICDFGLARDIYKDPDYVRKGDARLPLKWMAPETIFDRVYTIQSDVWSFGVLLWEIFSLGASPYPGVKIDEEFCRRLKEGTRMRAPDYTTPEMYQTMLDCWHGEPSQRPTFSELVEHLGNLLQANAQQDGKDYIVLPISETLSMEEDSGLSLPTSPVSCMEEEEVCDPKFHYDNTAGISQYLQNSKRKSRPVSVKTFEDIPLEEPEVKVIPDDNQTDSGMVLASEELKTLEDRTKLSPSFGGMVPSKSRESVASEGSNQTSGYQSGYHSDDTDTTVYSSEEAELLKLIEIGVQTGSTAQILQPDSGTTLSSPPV
# Outline: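 IC50 taken from blank-corrected OD492 curves of an anti-phosphotyrosine peroxidase ELISA. Reaction: 10 min, 25 °C, 3.6 μM ATP, 50 mM Hepes pH 7.4 with 20 mM MgCl2, 0.1 mM MnCl2 and 5% DMSO, on poly-Glu-Tyr-coated wells, started with insect-cell-expressed His-VEGFR-2 cytoplasmic domain.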
# [2] = test system: VEGF induced increases in intracellular calcium levels in HUVEC (human umbilical vein endothelial cells); experiment: VEGF Stimulated Ca++ Signal in vitro (FLIPR); format: cell-based; details: VEGF 5 ng/mL; for IC50: 0.01 to 10.0 μM
# Outline: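 IC50 values derive from % inhibition of the VEGF (5 ng/mL) calcium response, taken as max-min fluorescence at 516 nm in Fluo-4-loaded HUVEC. Compounds (0.1% DMSO final) were added 30 min before stimulation, at 10 μM or across 0.01–10.0 μM.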
Structure (SMILES),IC50 [1],IC50 [2],IC50 ([2]; Homo sapiens),inhibition at 10 µM ([2]; Homo sapiens)
"O=C1Nc2ccc(F)cc2C1=CNc1ccc(CN2CCCCC2)cc1 [Example 258, 5-Fluoro-3-[(4-piperidin-1-ylmethyl-phenylamino)-methylene]-1,3-dihydro-indol-2-one]",560 nM,720 nM,≤ 1000 nM,
"CC(O)c1ccc(NC=C2C(=O)Nc3ccc(Cl)cc32)cc1 (stereo not drawn) [Example 72, 5-Chloro-3-{[4-(1-hydroxy-ethyl)-phenylamino]-methylene}-1,3-dihydro-indol-2-one]",430 nM,,1560 nM,81.5%
"Cc1cccc2c1C(=CNc1ccc(CCC(=O)O)cc1)C(=O)N2 [Example 145, 3-{4-[(4-Methyl-2-oxo-1,2-dihydro-indol-3-ylidenemethyl)-amino]-phenyl}-propionic acid]",190 nM,590 nM,≤ 1000 nM,98.7%
"Cc1ccc(NC=C2C(=O)Nc3ccccc32)cc1C [Example 20, 3-[(3,4-Dimethyl-phenylamino)-methylene]-1,3-dihydro-indol-2-one]",1210 nM,,1820 nM,63%
"CSc1ccc(NC=C2C(=O)Nc3ccc(Cl)cc32)cc1 [Example 138, 5-Chloro-3-[(4-methylsulfanyl-phenylamino)-methylene]-1,3-dihydro-indol-2-one]",730 nM,,7070 nM,80.9%
"Cc1cccc2c1C(=CNc1cccc(S(=O)(=O)NCCCO)c1)C(=O)N2 [Example 194, N-(3-Hydroxy-propyl)-3-[(4-methyl-2-oxo-1,2-dihydro-indol-3-ylidenemethyl)-amino]-benzenesulfonamide]",660 nM,,2670 nM,96.9%
"Cc1cccc2c1C(=CNc1ccccc1)C(=O)N2 [Example 58, 4-Methyl-3-phenylaminomethylene-1,3-dihydro-indol-2-one]",360 nM,810 nM,≤ 1000 nM,86.6%
"Cc1cccc2c1C(=CNc1ccc(NCCN3CCOCC3)cc1)C(=O)N2 [Example 242, 4-Methyl-3-{[4-(2-morpholin-4-yl-ethylamino)-phenylamino]-methylene}-1,3-dihydro-indol-2-one]",70 nM,,,95.8%
"O=C1Nc2ccc(Cl)cc2C1=CNc1ccc(OCCN2CCCCC2)cc1 [Example 262, 5-Chloro-3-{[4-(2-piperidin-1-yl-ethoxy)-phenylamino]-methylene}-1,3-dihydro-indol-2-one]",210 nM,870 nM,≤ 1000 nM,
"CSc1ccc(NC=C2C(=O)Nc3ccccc32)cc1 [Example 136, 3-[(4-Methylsulfanyl-phenylamino)-methylene]-1,3-dihydro-indol-2-one]",490 nM,,2070 nM,63.7%
"O=C1Nc2ccccc2C1=CNc1ccc(OCCCCl)cc1 [Example 198, 3-{[4-(3-Chloro-propoxy)-phenylamino]-methylene}-1,3-dihydro-indol-2-one]",470 nM,,7920 nM,56.3%
"CN1CCCC(COc2ccc(NC=C3C(=O)Nc4cccc(F)c43)cc2)C1 (stereo not drawn) [Example 281, 4-Fluoro-3-{[4-(1-methyl-piperidin-3-ylmethoxy)-phenylamino]-methylene}-1,3-dihydro-indol-2-one]",320 nM,730 nM,≤ 1000 nM,
"Cc1cccc2c1C(=CNc1ccc(S(=O)(=O)NCCO)cc1)C(=O)N2 [Example 197, N-(2-Hydroxy-ethyl)-4-[(4-methyl-2-oxo-1,2-dihydro-indol-3-ylidenemethyl)-amino]-benzenesulfonamide]",90 nM,,,98.1%
"Nc1ccc(NC=C2C(=O)Nc3ccccc32)cc1 [Example 180, 3-[(4-Amino-phenylamino)-methylene]-1,3-dihydro-indol-2-one]",440 nM,,1030 nM,98.3%
"COc1ccc(NC=C2C(=O)Nc3cccc(C)c32)cc1OC [Example 126, 3-[(3,4-Dimethoxy-phenylamino)-methylene]-4-methyl-1,3-dihydro-indol-2-one]",340 nM,,1220 nM,95.2%
"CCN(CC)CCCOc1ccc(NC=C2C(=O)Nc3cccc(F)c32)cc1F [Example 267, 3-{[4-(3-Diethylamino-propoxy)-3-fluoro-phenylamino]-methylene}-4-fluoro-1,3-dihydro-indol-2-one]",230 nM,,1420 nM,
"O=C(O)Cc1cccc(NC=C2C(=O)Nc3ccccc32)c1 [Example 35, (3-[(2-Oxo-1,2-dihydro-indol-3-ylidenemethyl)-amino]-phenyl-)acetic acid]",190 nM,,3100 nM,95.1%
"O=C1Nc2cccc(F)c2C1=CNc1ccc(OCCCN2CCCCC2)cc1 [Example 255, 4-Fluoro-3-{[4-(3-piperidin-1-yl-propoxy)-phenylamino]-methylene}-1,3-dihydro-indol-2-one]",440 nM,,1300 nM,
"Cc1cccc2c1C(=CNc1ccc3ncsc3c1)C(=O)N2 [Example 92, 3-(Benzothiazol-6-ylaminomethylene)-4-methyl-1,3-dihydro-indol-2-one]",150 nM,,1770 nM,69%
"CCc1cccc(NC=C2C(=O)Nc3ccc(F)cc32)c1 [Example 176, 3-[(3-Ethyl-phenylamino)-methylene]-5-fluoro-1,3-dihydro-indol-2-one]",800 nM,,2540 nM,67.9%
"COc1cccc(NC=C2C(=O)Nc3ccccc32)c1 [Example 94, 3-[(3-Methoxy-phenylamino)-methylene]-1,3-dihydro-indol-2-one]",640 nM,,3880 nM,92.5%
"O=C1Nc2ccc(Cl)cc2C1=CNc1ccc(CN2CCCCC2)cc1 [Example 260, 5-Chloro-3-[(4-piperidin-1-ylmethyl-phenylamino)-methylene]-1,3-dihydro-indol-2-one]",300 nM,880 nM,≤ 1000 nM,
"O=C1Nc2ccccc2C1=CNc1ccc(C(=O)O)c(O)c1 [Example 44, 2-Hydroxy-4-[(2-oxo-1,2-dihydro-indol-3-ylidenemethyl)-amino]-benzoic acid]",660 nM,,2020 nM,96%
"COc1cccc(-c2ccc3c(c2)NC(=O)C3=CNc2ccc(N3CCOCC3)cc2)c1 [Example 269, 6-(3-Methoxy-phenyl)-3-{[4-morpholin-4-yl-phenylamino)-methylene]-1,3-dihydro-indol-2-one]",1680 nM,,≥ 10000 nM,
"O=C1Nc2ccccc2C1=CNc1cccc(S(=O)(=O)NCCCO)c1 [Example 193, N-(3-Hydroxy-propyl)-3-[(2-oxo-1,2-dihydro-indol-3-ylidenemethyl)-amino]-benzenesulfonamide]",2470 nM,,4770 nM,81.5%
"O=C1Nc2cccc(F)c2C1=CNc1ccc(CCN2CCOCC2)cc1 [Example 309, 4-Fluoro-3-{[4-(2-morpholin-4-yl-ethyl)-phenylamino]-methylene}-1,3-dihydro-indol-2-one]",230 nM,680 nM,≤ 1000 nM,
